{"source": "patent US9193954B2", "about": "“Methods and compositions for mesenchymal stem cell proliferation” (priority 2011, dated 2015)", "type_in_all_cases": "cell-based, human", "key": {"hMSCs [1]": {"test_system": "hMSCs", "test": "hMSC cell layer thickness by confocal microscopy", "conditions": "for cell layer thickness: day 40", "method": "hMSC cell layer thickness was measured using the z-directional controls of a FV1000 Olympus Laser Scanning Confocal Microscope. On days 1, 14, and 40 cells, seeded on optically clear glass bottom 24-well culture plates (MatTek, Ashland, Mass.) were stained using a fluorescent LIVE/DEAD Viability/Cytotoxicity kit (Invitrogen). The focal plane of the microscope was adjusted to the cell-plate interface and set to zero. Using the z-directional controls the focal plane was raised until the live fluorescently stained cells were no longer visible at which point the cell layer thickness was recorded."}, "[2]": {"test_system": "stem markers Sox2 and Nanog", "test": "RT-PCR of stem markers Sox2 and Nanog at end of 33 day culture, normalized to GAPDH (Example 1)", "conditions": "end of 33 day time course", "method": "FIG. 2 RNA was harvested from BIO treated hMSCs at day […] and analyzed for expression of stem markers Sox2 and Nanog. Expression was normalized to housekeeping gene GAPDH. Error bars shown are standard error (n=3).\nAt the end of the 33 day experimental time course RNA was isolated (Omega E.N.Z.A total RNA kit) from the hMSC specimens (n=3) and reverse transcription (Bio-Rad iSCRIPT cDNA synthesis kit) was performed to yield cDNA. Forward and reverse primers (Table 1.) for the stem markers Sox2 and Nanog as well as the housekeeping gene, GAPDH (Glyceraldehyde 3-phosphate dehydrogenase) were then used to quantify gene expression. Expressions of genes of interest (Sox2 and Nanog) were normalized to control (GAPDH). We observed a dose dependent increase in both Sox2 and Nanog gene expression. Sox2 expression increased ˜30% and ˜50% with 2 μM and 5 μM BIO treatment, while Nanog expression increased >100% with 5 μM BIO treatment (FIG. 2)."}, "[3]": {"test_system": "markers of undifferentiated stem cells, Sox2, Nanog, and Oct4", "test": "RT-PCR of Sox2, Nanog, Oct4 in two-dimensionally cultured BIO-treated hMSCs, normalized to β-actin", "method": "RT-PCR was used to assess gene expression of hMSCs over time. At days: 0 (before BIO treatment), 1, 3, 6, 19, 29, 34, 37, and 41, samples were lysed and total RNA was isolated (ENZA Total RNA Kit, Omega). Reverse transcription was performed using the iScript cDNA Synthesis Kit (Bio-Rad). The reverse transcription reaction was incubated at 25° C. for 5 min, 42° C. for 30 min, and terminated at 85° C. for 5 min. PCR was performed using a CFX96 Real-Time PCR System (Bio-Rad), monitoring sybrgreen products (SsoFastEvaGreen Master Mix, Bio-Rad). Primers for β-actin, sex determining region Y-box 2 (Sox2), Nanog homobox (Nanog), and octamer-binding transcription factor 4 (Oct4), core-binding factor subunit alpha-1 (Cbfa1, also known as Runx2), sex determining region Y-box 9 (Sox9), and peroxisome proliferator-activated receptor gamma (PPARγ) were used (Table 2). The PCR parameters used were as follows: hold at 95° C. for 5 min, followed by 40 cycles of: 95° C. for 15 sec denaturation, 60° C. (β-actin, Sox2, Sox9), or 57° C. (Nanog, Oct4, Cbfa1), or 55° C. (PPARγ) for 60 sec annealing, and 72° C. for 20 sec extension. Threshold cycle (CT) analysis was used to quantify PCR products normalized to the cellular housekeeping gene β-actin. Relative gene quantification was performed using the Pfaffl Method, taking into account the variation between primer efficiencies.\nTo more closely examine BIO's effects on hMSCs gene expression profiles for the markers of undifferentiated stem cells sex determining region Y-box 2 (Sox2), Nanog homobox (Nanog), and octamer-binding transcription factor 4 (Oct4) were monitored and normalized to the housekeeping gene β-actin. […] RNA was collected just before, and 1, 3, 6, 19, 27, 34, 37, and 41 days after the BIO treatment Results were quantified over time and again, normalized to both the housekeeping gene β-actin and untreated controls (0 μM BIO), and the results are shown in FIG. 5."}, "hMSCs [4]": {"test_system": "hMSCs", "test": "Two-dimensional hMSC proliferation by manual cell counts (trypan blue, hemocytometer)", "conditions": "for increase in cell population compared to untreated controls: day 41, 24 hr treatment", "method": "FIG. 4 Schematic representation of 41 day hMSC monolayer culture after 24 hr exposure to BIO-containing media (A). Cells were trypsinized and manually counted on days 0, 1, 3, 6, 19, 27, 34, 37, and 41 and shown to undergo a dose-dependent, BIO-mediated increase in proliferation (B).\nhMSCs or C3H10T1/2s were seeded at a density of 5,000 cell/cm^2 in 24-well tissue culture plates (Greiner Bio-One, Monroe, N.C.) and allowed to become adherent over a period of 24 hrs prior to treatment. BIO was solubilized in dimethyl sulfoxide (DMSO) to prepare 200 and 500 μM stock solutions. 10 μL of BIO in DMSO was added to 1 mL of culture media so that the final concentrations of 0, 2, and 5 μM were achieved. The cells were cultured with BIO-containing media for 24 hrs after which media was replaced by media without BIO, as illustrated in FIGS. 4a and 7a (two-dimensional treatment and three-dimensional treatment respectively).\nDuring culture, hMSC viability was periodically assessed using an alamarBlue metabolic assay (AbD Serotec, UK). Culture media was replaced with a 10% alamarBlue-media solution and allowed to incubate at 37° C. for 2 hr. After incubation, alamarBlue solution was transferred to black 96-well plates and media was refreshed. Fluorescence intensity was measured using a Tecan Infinite 200 PRO plate-reader (excitation/emission: 570/600 nm). To assess hMSC proliferation, cells were trypsinized and counted using trypan blue exclusion and a hemocytometer. Average cell counts were normalized to data collected on day 0 to illustrate the effect of BIO on hMSC proliferation over time."}}}
{"compound": "O=C1Nc2cc(Br)ccc2/C1=C1/Nc2ccccc2/C1=N\\O", "note": "[BIO, 6-bromoindirubin-3′-oxime]", "values": [{"measurement": "cell layer thickness", "setting": "hMSCs [1]; 2 μM BIO", "result": 23.5, "unit": "μm"}, {"measurement": "cell layer thickness", "setting": "hMSCs [1]; 5 μM BIO", "result": 24.0, "unit": "μm"}, {"measurement": "cell layer thickness versus untreated control", "setting": "hMSCs [1]; day 0 and 14", "result": "no statistically significant differences"}, {"measurement": "Sox2 expression increase", "setting": "[2]; 2 μM BIO", "result": "~30", "unit": "%"}, {"measurement": "Nanog expression increase", "setting": "[2]; 5 μM BIO", "result": "> 100", "unit": "%"}, {"measurement": "Sox2 expression increase", "setting": "[2]; 5 μM BIO", "result": "~50", "unit": "%"}, {"measurement": "Nanog gene expression compared to untreated control", "setting": "[3]; 2 μM BIO, day 1, 2D", "result": 5.4, "unit": "fold"}, {"measurement": "Oct4 gene expression compared to untreated control", "setting": "[3]; 2 μM BIO, day 1, 2D", "result": 5.1, "unit": "fold"}, {"measurement": "Sox2 gene expression compared to untreated control", "setting": "[3]; 2 μM BIO, day 1, 2D", "result": 7.1, "unit": "fold"}, {"measurement": "Nanog gene expression compared to untreated control", "setting": "[3]; 2 μM BIO, day 3, 2D", "result": 1.0, "unit": "fold"}, {"measurement": "Oct4 gene expression compared to untreated control", "setting": "[3]; 2 μM BIO, day 3, 2D", "result": 3.4, "unit": "fold"}, {"measurement": "Sox2 gene expression compared to untreated control", "setting": "[3]; 2 μM BIO, day 3, 2D", "result": 4.4, "unit": "fold"}, {"measurement": "Nanog gene expression compared to untreated control", "setting": "[3]; 5 μM BIO, day 1, 2D", "result": 15.3, "unit": "fold"}, {"measurement": "Oct4 gene expression compared to untreated control", "setting": "[3]; 5 μM BIO, day 1, 2D", "result": 16.9, "unit": "fold"}, {"measurement": "Sox2 gene expression compared to untreated control", "setting": "[3]; 5 μM BIO, day 1, 2D", "result": 96.4, "unit": "fold"}, {"measurement": "Nanog gene expression compared to untreated control", "setting": "[3]; 5 μM BIO, day 3, 2D", "result": 4.8, "unit": "fold"}, {"measurement": "Oct4 gene expression compared to untreated control", "setting": "[3]; 5 μM BIO, day 3, 2D", "result": 9.8, "unit": "fold"}, {"measurement": "Sox2 gene expression compared to untreated control", "setting": "[3]; 5 μM BIO, day 3, 2D", "result": 17.7, "unit": "fold"}, {"measurement": "increase of Nanog expression relative to untreated controls", "setting": "[3]; day 1, 2 uM BIO", "result": 797, "unit": "%"}, {"measurement": "increase of Oct4 expression relative to untreated controls", "setting": "[3]; day 1, 2 uM BIO", "result": 545, "unit": "%"}, {"measurement": "increase of Sox2 expression relative to untreated controls", "setting": "[3]; day 1, 2 uM BIO", "result": 677, "unit": "%"}, {"measurement": "increase of Nanog expression relative to untreated controls", "setting": "[3]; day 1, 5 uM BIO", "result": 2247, "unit": "%"}, {"measurement": "increase of Oct4 expression relative to untreated controls", "setting": "[3]; day 1, 5 uM BIO", "result": 1800, "unit": "%"}, {"measurement": "increase of Sox2 expression relative to untreated controls", "setting": "[3]; day 1, 5 uM BIO", "result": 9180, "unit": "%"}, {"measurement": "increase of Nanog expression relative to untreated controls", "setting": "[3]; day 3, 2 uM BIO", "result": 71, "unit": "%"}, {"measurement": "increase of Oct4 expression relative to untreated controls", "setting": "[3]; day 3, 2 uM BIO", "result": 263, "unit": "%"}, {"measurement": "increase of Sox2 expression relative to untreated controls", "setting": "[3]; day 3, 2 uM BIO", "result": 312, "unit": "%"}, {"measurement": "increase of Nanog expression relative to untreated controls", "setting": "[3]; day 3, 5 uM BIO", "result": 324, "unit": "%"}, {"measurement": "increase of Oct4 expression relative to untreated controls", "setting": "[3]; day 3, 5 uM BIO", "result": 755, "unit": "%"}, {"measurement": "increase of Sox2 expression relative to untreated controls", "setting": "[3]; day 3, 5 uM BIO", "result": 1238, "unit": "%"}, {"measurement": "2D proliferation relative to untreated control", "setting": "hMSCs [4]; 2 uM BIO", "result": 155, "unit": "%"}, {"measurement": "increase in cell population compared to untreated controls", "setting": "hMSCs [4]; 2 μM BIO", "result": 4.5, "unit": "fold"}, {"measurement": "2D proliferation relative to untreated control", "setting": "hMSCs [4]; 5 uM BIO", "result": 172, "unit": "%"}, {"measurement": "increase in cell population compared to untreated controls", "setting": "hMSCs [4]; 5 μM BIO", "result": 5.5, "unit": "fold"}, {"measurement": "hMSC population increase", "setting": "hMSCs [4]; BIO-treated hMSCs, concentration and day not stated", "result": "~4", "unit": "fold"}]}
